EP3795574A1, “SYNTHESIS AND USAGE OF 1,2-DIAMINODIAMANTANE PLATINUM(II) COMPLEXES” (Justus-Liebig-Universität Gießen, priority 2019, dated 2021)

Columns and labels:
[1] = compared to cisplatin; cited from earlier work
testicular cancer = details: cited from earlier work
[2] = system: guanosine monophosphate (GMP); assay: Nucleotide binding experiment by 1H NMR, GMP; details: molar ratio 1:3.5, 37 °C, 66 h, DMF-d7/D2O, compared to cisplatin
Description: (§1) Formation of DNA cross-links is the crucial part of the platinum cytotoxicity mechanism. To study diaplatin complex 1 activity on nucleotides in comparison to cisplatin we chose guanosine monophosphate (GMP) and deoxyguanosine monophosphate (dGMP) as substrates (Fig 6). The reaction between platinum complexes and GMP or dGMP causes substitution of their leaving group ligands with nucleotide forming monoadducts that quickly lose a second leaving ligand forming bisadducts. The N7 atom of the purine fragment is known to be the preferred site of attachment to platinum, thus causing easily observable downfield NMR shifts of the adjacent H8 atom. The collected ^1H NMR data during incubation of the reaction mixtures provide time-dependent changes of the H8 atom integral, thereby providing insights into the binding rates between the studied complexes (Fig 7).
(§2) A platinum complex solution in DMF-d7 (0.27 mL, 6.9 mM) was reacted with GMP or dGMP in a molar ratio 1:3.5 introduced with a NaClO4 solution in D2O (0.33 mL, 100 mM). The reaction mixture was immediately transferred into an NMR tube and ^1H NMR data were collected every hour for 66 h at 37 °C. The pH was measured immediately after the reaction mixture was prepared and at the end of the reaction at rt.

[3] = system: deoxyguanosine monophosphate (dGMP); assay: Nucleotide binding experiment by 1H NMR, dGMP; details: molar ratio 1:3.5, 37 °C, 66 h, DMF-d7/D2O, compared to cisplatin
Description: as §1, §2

[4] = system: human ovarian cancer cell line A2780; assay: Cellular viability assay (resazurin / Alamar Blue, 72 h); details: A2780, 72 h at 37 °C, compared to cisplatin; result in words
A2780cis = assay: Cellular viability assay (resazurin / Alamar Blue, 72 h), cisplatin-resistant variant; details: 72 h at 37 °C, compared to cisplatin, result in words
[5] = Solubility of the complexes in solvents

N.N.O=C([O-])C1(C(=O)[O-])CCC1.[Pt+2] [Carboplatin]
increase in concentration to achieve the same effect [1]: 20-40 fold

N.N.[Cl][Pt][Cl] [Cisplatin, cis-dichlorodiamineplatinum(II)]
cure rate (testicular cancer): 90%

cis-[1,2-diaminodiamantane]dichlorideplatinum(II) [(R,R)-1]
rate of bisadduct formation [2]: faster with (R,R)-1 than with cisplatin | rate of bisadduct formation [3]: faster with (R,R)-1 than with cisplatin

cis-[1,2-diaminodiamantane]dichlorideplatinum(II) [(S,S)-1]
cytotoxicity [4]: lowest efficacy | cytotoxicity (A2780cis): lowest efficacy | rate of bisadduct formation [3]: faster than for (R,R)-1 and cisplatin

cis-[1,2-diaminodiamantane]dichlorideplatinum(II) [compound 1]
solubility ([5]; in DMF): good solubility | solubility ([5]; in methanol): somewhat soluble

cis-[1,2-diaminodiamantane]oxalatoplatinum(II) [(S,S)-2]
solubility ([5]; […]): insoluble
